Usually IC50 stands for the concentration needed to halve the response being measured. The term inhibition denotes the drop in the measured response relative to a control, in per cent.

We go through four compounds from paper PMC6804243, “Small-Molecule Inhibition of UBE2T/FANCL-Mediated Ubiquitylation in the Fanconi Anemia Pathway” (ACS Chemical Biology, 2019).

Test [1] relates to T1, UBE1.
T1 construct: purchased Boston Biochem
As to the kind of experiment: Gel-based ubiquitylation assay (UBE2T/GST-FANCLRING), autoubiquitylation of UBE1. To be noted: compound 100 μM; Western blot probed for biotin. In kind it is biochemical.

The target in test [2] is T2, UBE2T/FANCLRING (ubiquitylation of GST-FANCLRING) (Homo sapiens, UniProt Q9NW38).
T2 sequence (Q9NW38 275-375 limits assumed): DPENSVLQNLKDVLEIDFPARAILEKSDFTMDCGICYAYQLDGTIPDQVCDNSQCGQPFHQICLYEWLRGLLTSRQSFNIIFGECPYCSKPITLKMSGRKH
As to the kind of experiment: biochemical. The settings on record: for LE: ligand efficiency = 1.4(–logIC50)/HAC; for inhibition at 20 µM: read-out: Primary screen % Inhibition (20 M). The source says: To identify small-molecule inhibitors of the FA pathway, we developed a high-throughput screen (HTS) compatible assay based on the FA ubiquitylation cascade (see Figure 1a, as well as Figure S1 in the Supporting Information). Given the complexity of the full FA ubiquitylation cascade, we constructed a simplified ubiquitylation reaction that would be robust for HTS purposes yet still provide many relevant protein species for small molecules to interact with. The recombinant protein assay developed used homogeneous time-resolved fluorescence (HTRF) and contained Cy5-labeled ubiquitin, the E1 enzyme UBE1, the E2 enzyme UBE2T, and the RING domain (residues 275–375) of the E3 FANCL (FANCLRING). FANCLRING was used as a surrogate substrate for ubiquitylation in the absence of the FA core and FANCD2/FANCI complexes.
Figure 1 Screening for inhibitors of the FA pathway. (a) Schematic of the HTRF ubiquitylation assay. Ubiquitylation of GST-tagged E3 (FANCLRING) by the E2 (UBE2T) places Cy5-labeled ubiquitin in close proximity to the anti-GST Tb cryptate. Excitation of the Tb cryptate donor results in FRET to the Cy5 acceptor. Simultaneous monitoring of the donor emission (620 nm) and acceptor emission (665 nm) allows for determination of the 665/620 ratio. (b) HTRF screen results showing average inhibition (n = 2) produced by compounds at 20 μM (in-house diversity library; 10 111 compounds) and 10 μM (Selleckchem epigenetic library; 119 compounds). Numbers given in parentheses represent the number of compounds per inhibition threshold.
Purified protein was concentrated using a Vivaspin-6 concentrator with a 10 kDa MW cut-off (Vivascience) and flash-frozen in small aliquots for storage at […]
Cy5 labelling of ubiquitin. To a 5 mg/mL solution of recombinant human ubiquitin (Boston Biochem) in 0.1 M NaHCO3 pH 8.3, was added a 4-fold molar excess of Cyanine5 NHS ester (Lumiprobe). The reaction was incubated at 23 °C for 4 hours in the dark. The protein was separated from unreacted dye by passage through a PD-10 desalting column (GE Healthcare) equilibrated with PBS. Purified protein was concentrated using a Vivaspin-6 concentrator with a 3 kDa MW cut-off (Vivascience) and flash-frozen in small aliquots for storage […]
Homogeneous Time-Resolved Fluorescence (HTRF) Assay. GST-FANCLRING (200 nM) was incubated with anti-GST Tb (CisBio, #61GSTTL) (2.5 ng final) at room temperature for 30 minutes in assay buffer (50 mM Tris-HCl pH 8.0, 1 mM TCEP, 5 mM MgCl2, 0.005% Tween-20). Meanwhile, 10 μL of UBE2T in assay buffer (or assay buffer alone for no enzyme controls) was incubated in a white 384-well plate (Corning) with 20 nL DMSO or compound in DMSO. After 30 minutes, the GST-RINGRING solution was added to an equal volume solution containing His-UBE1 (Boston Biochem) (16 nM), Cy5-ubiquitin (400 nM), ATP (0.8 mM) in assay buffer. 10 μL of this solution was immediately added to each well of the 384 -well plate containing UBE2T or buffer. F inal concentrations: His -UBE1 (4 nM), UBE2T (6 nM), GST -RINGRING (50 nM), Cy5-ubiquitin (100 nM), ATP (0.2 mM), compound (10 or 20 μM) in 0.1 %
(v/v) DMSO. After a 10 minute incubation at 23 °C, 5 µL of a 50 mM EDTA solution were added to each well to stop the reaction. Signal was measured at λEx 340 nm and λEm 665 nm and 620 nm using a PHERAstar FS plate reader
(BMG Labtech). A ratio was calculated as [λEm(665)/λEm(620)] × 104 for each well and this was used to determine the percent inhibition for test compounds.
Gel-based ubiquitylation assays. Assays were carried out in a total volume of 10 µL containing 20 nM His6-UBE1 (Boston Biochem), 50 nM UBE2T, 250 nM GST-E3 and 500 nM biotinylated ubiquitin (Boston Biochem) in buffer (50

Where [3] appears, read: library stock, 10-point dose-response, read-out: Primary screen IC50.
Where [4] appears, read: printed beside the structures in Figure S3, read-out: IC50 (Figure S3).

Each structure is given as a SMILES string. Where two headings read alike, the source gives them in different places.

As to `NCCN1C(=O)CC[C@H]2CN(Cc3cccc(-c4ccco4)c3)CC[C@H]21` [CU1], in test [1], the “autoubiquitylation of UBE1” value is listed as “did not affect ubiquitylation of either UBE2T or UBE1”. Further, in test [2] (setting [3]), the IC50 was determined as 15.2 µM. In addition, in test [2], the LE worked out at 0.23 and the inhibition at 20 µM is 48.4%. In addition, the IC50 in test [2] (setting [4]) is 56 µM.
Taken in the same sequence, the figures for `CCN1CCN(c2cc(C)nc3nc(CN4CCCCC4C)nn23)CC1` (centres unmarked) [CU2] were “did not affect ubiquitylation of either UBE2T or UBE1”, 8.4 µM, 0.26, 63.4% and 14.8 µM.
On the same counts, the results for `Cc1nnc(N(C)CC2CCN(CC(C)O)CC2)c(C#N)c1C` (centres unmarked) [CU9] are “did not affect ubiquitylation of either UBE2T or UBE1”, 31.4 µM, 0.26, 48.2% and 45.4 µM.
With `NC(=O)[C@@H]1CCCN1C(=O)c1cc(-n2cccc2)ccc1Cl` [CU12], in test [1], the “autoubiquitylation of UBE1” value is “somewhat impaired the autoubiquitylation of UBE1”. For the same compound, the IC50 in test [2] (setting [3]) came to 11.5 µM; in test [2] (setting [4]), 9.9 µM. For the same compound, the LE in test [2] is 0.32. Besides, the inhibition at 20 µM in test [2] (primary screen, compound at 20 μM (head prints '20 M'), n = 2) turned out to be 107%.
